In paper PMC5524213 (Bioconjugate chemistry, 2015):

Legend:
[1] = ref not given, cited from earlier work; for emission maximum, free dye: reported value; for absorbance maximum, free dye: reported for the free dye
DMS-53 (δOR+) tumors [2] = assay: in vivo selectivity imaging, bilateral H1299 and DMS-53 xenografts, Optix-MX3; set-up: species or system mice; conditions: 40 nmol/kg i.v., 24 hours post-injection, n = 4, p ≤ 0.01
[3] = photobleaching in ambient light or in the dark; format: physicochemical; conditions: 50 nM in PBS, n = 4
DMS-53 (δOR+) tumors [4] = format: in vivo, mice; conditions: i.v. tail vein; 40, 80 and 160 nmol/kg compared
HCT-116/δOR tumors [5] = format: in vivo, mice; conditions: i.v. tail vein
[6] = absorbance and emission spectra; format: physicochemical; conditions: for absorbance maximum: Tecan Infinite M-1000 PRO, 230–1000 nm; for absorbance maximum / emission maximum: step 2 nm; for emission maximum: bandwidth 5 nm; for Stokes-shift: conjugate versus free IR800CW
HCT-116/δOR tumors [7] = format: in vivo, mice; conditions: 10 nmol/kg i.v., 24 hours post-injection, n = 4, p ≤ 0.01
[8] = cited from earlier work
DMS-53 cells [9] = assay: confocal fluorescence microscopy, DMS-53; format: cell-based
H1299 cells [10] = assay: confocal fluorescence microscopy, H1299; format: cell-based
HCT-116/δOR cells = assay: semi-quantitative confocal microscopy, HCT-116/δOR cells; format: cell-based; conditions: Dmt-Tic-Lys-Cy5 50 nM
δOR = δOR (Homo sapiens, UniProt P41143); conditions: cited from earlier work
Chain of δOR (P41143 1-357 limits assumed): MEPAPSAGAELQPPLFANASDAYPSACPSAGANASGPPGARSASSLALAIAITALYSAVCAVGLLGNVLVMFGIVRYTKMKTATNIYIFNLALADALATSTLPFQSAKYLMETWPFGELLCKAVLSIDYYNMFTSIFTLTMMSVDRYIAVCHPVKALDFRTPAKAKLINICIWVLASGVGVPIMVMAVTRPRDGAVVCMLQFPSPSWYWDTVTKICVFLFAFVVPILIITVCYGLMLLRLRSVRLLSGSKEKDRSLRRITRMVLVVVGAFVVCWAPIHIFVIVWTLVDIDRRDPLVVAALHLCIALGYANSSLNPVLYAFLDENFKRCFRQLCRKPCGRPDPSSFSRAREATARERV

HCT-116/δOR tumor = conditions: dose 4.5 nmol/kg; previous experiments; cited from earlier work
DMS-53 cells [11] = assay: semi-quantitative confocal microscopy, DMS-53 cells; format: cell-based; conditions: Dmt-Tic-Lys-Cy5 50 nM
H1299 cells [12] = assay: semi-quantitative confocal microscopy, H1299 cells; format: cell-based; conditions: Dmt-Tic-Lys-Cy5 50 nM
HCT-116 cells = assay: semi-quantitative confocal microscopy, parental HCT-116 cells; format: cell-based; conditions: Dmt-Tic-Lys-Cy5 50 nM
[13] = naloxone 5 µM final pre-incubated 15 min, Dmt-Tic-Lys-Cy5 50 nM final
[14] = Dmt-Tic-Lys-Cy5 50 nM, 15 min, room temperature

For CCN1/C(=C/C=C/C=C/C2=[N+](CCCCCC(=O)O)c3ccc(S(=O)(=O)O)cc3C2(C)C)C(C)(C)c2cc(S(=O)(=O)[O-])ccc21 [Cy5], which “emission maximum, free dye” value [1] is on record?
Its value is 670 nm.

And the “absorbance maximum, free dye” value [1]?
The value was 649 nm.

Which “fold enhancement of positive tumor (DMS-53) relative to negative tumor (H1299)” value (DMS-53 (δOR+) tumors [2]) does the source give for Cc1cc(O)cc(C)c1C[C@H](N)C(=O)N1Cc2ccccc2C[C@H]1C(=O)N[C@@H](CCCCNC(=O)CCSC1CC(=O)N(CCNC(=O)CCCCCN2C(=CC=C3CCCC(C=CC4=[N+](CCCCS(=O)(=O)[O-])c5ccc(S(=O)(=O)O)cc5C4(C)C)=C3Oc3ccc(S(=O)(=O)O)cc3)C(C)(C)c3cc(S(=O)(=O)O)ccc32)C1=O)C(=O)O (stereo partly drawn) [Dmt-Tic-IR800] here?
Its value is ~ 4 fold.

And the “normalized intensity, DMS-53 versus H1299” value (DMS-53 (δOR+) tumors [2])?
Its value is “significantly higher normalized intensity”.

And the “significance of difference in percent initial fluorescence, light versus dark” value ([3]; ICG filter set, except at ≥ 7 hours)?
The value was “not significantly different”.

What about the “difference in percent of the initial fluorescence intensity, light versus dark” value ([3]; ICG filter set, significant at ≥ 7 hours) of the same compound?
The value was 6–13%.

What about the optimal dose (DMS-53 (δOR+) tumors [4]) of the same compound?
Its optimal dose is 40 nmol/kg.

And the “tumor-to-background ratio, 20 versus 10 nmol/kg” value (HCT-116/δOR tumors [5]; 10 nmol/kg selected)?
Its value is “similar”.

What about the tumor-to-background ratio (HCT-116/δOR tumors [5]; 20 and 10 nmol/kg versus 5 and 2.5 nmol/kg, all time points) of the same compound?
The tumor-to-background ratio was “greatest tumor-to-background ratio”.

And the dye retention (HCT-116/δOR tumors [5]; IVIS-200)?
Its dye retention is “retained for days”.

What about the absorbance maximum ([6]; 100 µM in PBS) of the same compound?
Its absorbance maximum is 778 nm.

And the emission maximum ([6]; 1 mM in PBS, emission 450–850 nm)?
Its emission maximum is 832 nm.

And the Stokes-shift [6]?
The Stokes-shift was 54 nm.

And the “average fluorescence signal, HCT-116/δOR versus HCT-116 tumors” value (HCT-116/δOR tumors [7])?
Its value is “significantly higher average fluorescence signal”.

Which toxicity [8] does the source give for CC1(C)C(/C=C/C2=C(Oc3ccc(S(=O)(=O)O)cc3)C(=C/C=C3/N(CCCCS(=O)(=O)O)c4ccc(S(=O)(=O)[O-])cc4C3(C)C)/CCC2)=[N+](CCCCCC(=O)O)c2ccc(S(=O)(=O)O)cc21 [IR800CW] here?
The toxicity was “non-toxic”.

And the “emission maximum, free dye” value [1]?
The value was 789 nm.

And the “absorbance maximum, free dye” value [1]?
The value was 774 nm.

And the Stokes-shift [6]?
Its Stokes-shift is 15 nm.

With C=CCN1CC[C@]23c4c5ccc(O)c4O[C@H]2C(=O)CC[C@@]3(O)[C@H]1C5 [naloxone] as the compound, how does the “effect of naloxone on cell-surface labeling” value (DMS-53 cells [9]; [13]) read?
Its value is “blocked”.

And the “effect of naloxone on cell-surface labeling” value (H1299 cells [10]; [13])?
The value was “unaffected”.

For Dmt-Tic-Lys-Cy5, which cell-surface labeling (DMS-53 cells [9]; [14]) is on record?
The cell-surface labeling was “cell-surface labeling is observed”.

And the cell-surface labeling (HCT-116/δOR cells)?
The cell-surface labeling was “Cell-surface labeling was observed”.

And the cell-surface labeling (H1299 cells [10]; [14])?
The cell-surface labeling was “little labeling was observed”.

What about the “δOR affinity (in words)” value (δOR) of the same compound?
The value was “low nM affinity”.

What about the Ki (δOR; read-out: binding affinity for the δOR (Ki)) of the same compound?
Its Ki is 3 nM.

What about the “tumor uptake and retention” value (HCT-116/δOR tumor) of the same compound?
Its value is “selective uptake and retention”.

What about the photobleaching ([3]; light versus dark, IVIS-200, Cy5 filter set) of the same compound?
The photobleaching was “photobleaches”.

And the cell-surface labeling (DMS-53 cells [11])?
Its cell-surface labeling is “Cell-surface labeling was observed”.

What about the labeling (H1299 cells [12]) of the same compound?
The labeling was “No labeling was observed”.

And the labeling (HCT-116 cells)?
The labeling was “No labeling was observed”.

What about the absorbance maximum ([6]; 100 µM in PBS) of the same compound?
The absorbance maximum was 650 nm.

And the emission maximum ([6]; 100 µM in PBS, emission 280–850 nm)?
Its emission maximum is 676 nm.
